Reference: PMC7932521, “2-aminobenzimidazoles for leishmaniasis: From initial hit discovery to in vivo profiling” (PLoS Neglected Tropical Diseases, 2021)
≈ marks a conversion by molar mass, not a printed value. Read-outs that look alike come from different tables or passages of the source.

How the values were obtained:
[1] = system: Leishmania infantum MHOM/MA(BE)/67/ITMAP263 amastigotes; assay: L. infantum intracellular amastigote assay in PMM; format: cell-based; settings: for SI: selectivity index (CC50 / IC50): CC50 / L. infantum IC50; for IC50: read-out: L. infantum IC50
Experimental: (§1) Leishmania infantum MHOM/MA(BE)/67/ITMAP263 amastigotes were collected from the spleen of infected donor Golden hamsters. Primary peritoneal mouse macrophages (PMM) were used as host cells for in vitro assays. PMM were collected from Swiss mice after 2 days of peritoneal stimulation with a 2% suspension of potato starch and maintained in RPMI-1640 medium supplemented with 200 mM L-glutamine, antibiotics and 5% FCS at 37°C and 5% CO2. Promastigotes of L. infantum chagasi (luciferase) (MHOM/BR/2005/NLC) obtained as described in Reimão et al.,[27] were grown in M199 medium supplemented with 10% FCS, 0.25% hemin, 32 μg/ml hygromycin and 2% sterile human urine at 25°C and 5% CO2.
(§2) Stock solutions of the compounds at 20 mM were prepared in 100% DMSO. Next, the compounds were serially pre-diluted in DMSO followed by a further dilution in demineralized water to assure a final in-test DMSO concentration below 1%. The compounds were tested at 4-fold dilutions starting at 64 μM.
For the antileishmania in vitro assays, 3×10^4 PMM/well were seeded in 96-well plates. After 24h, 5×10^5 amastigotes/well were added and incubated for 2h at 37°C. Next, the compounds in 4-fold serial dilutions were added and the plates were further incubated for 5 days (37°C, 5% CO2). Parasite burdens were assessed using an inverted microscope after Giemsa staining. The results were expressed as percent reduction in parasite burdens compared to negative control wells (100% growth) and IC50 values were determined. Values represent the geometric mean of at least two independent experiments. Miltefosine was used as the positive control in all plates.

[2] = system: PMM (Primary Mouse Macrophages); assay: Cytotoxicity on primary peritoneal mouse macrophages; format: cell-based; settings: read-out: PMM IC50
Experimental: as §1, §2

MRC-5 cells = assay: MRC-5 cytotoxicity; format: cell-based; settings: S1 Data
[3] = Experimental distribution coefficient (eLogD); format: physicochemical
Experimental: To determine the lipophilicity of the compounds, a methodology based on the retention time of molecules in reverse stationary phase (Ascentis RP-Amide HPLC column) was used. The chromatogram was obtained using LC-MS/MS. Test compounds were prepared at 1.0 μg/mL by adding the stock solution at (1:1) mobile phases A:B + internal standard at 200nM (A: 5% methanol in 10mM ammonium acetate pH 7.4, B: 100% methanol), DMSO concentration must be lower than 2%. […] The retention time (in minutes) of each of the eight standards was plotted against their LogD values. The resulting equation for the calibration curve (y = mx + b) was used to calculate the LogD values for the test compounds.

[4] = Parallel artificial membrane permeability assay (PAMPA); format: in vitro ADME; settings: S1 Data; for Papp at 5 h, 10 μM: PAMPA, read-out: PAMPA Pe
Experimental: To determine the passive permeability of the compounds, a 96-well plate containing membranes pre-coated with lipids (Corning Gentest # 353015) was used. The solutions of the compounds were prepared by diluting the stock solutions (10mM) in phosphate buffered saline (PBS) pH 6.5 at a final concentration of 10μM. The solutions diluted in PBS pH 6.5 were then added to the donor portion of the plate (300 μl/well), while PBS pH 7.4 (200 μl/well) was added to the acceptor portion. The two portions of the plate were then coupled, and the system was incubated for 5 h at 37°C. At the end of the incubation, samples were collected from the donor and acceptor plates, and then added to plates containing quench solution (10% water and 90% methanol: acetonitrile (50:50) + 50 nM tolbutamide). The final concentrations of compounds in the donor, acceptor, and initial solution (T0) wells were analyzed using LC-MS/MS. The results were used to calculate an effective permeability (Pe) value. The PAMPA assay was performed in triplicate (n = 3).

MRC-5 cytotoxicity = format: cell-based; settings: human, MRC-5 cells; S1 Data
[5] = Mouse liver microsomal stability; format: in vitro ADME; settings: for microsomal CLint at 0.5 μM: CD1, mouse, liver microsomes, pH 7.4, S1 Data, read-out: MLM CLint
Experimental: The metabolic stability of the compounds was evaluated in human (pool of 200 donors, XenoTech) and mouse liver microsomes (CD1 mouse, GIBCO). Test compounds were prepared at a concentration of 0.5 μM and incubated with 0.25 mg/mL liver microsomes at pH 7.4 and 37°C. The reaction was started by addition of NADPH at […]. Samples were taken at 0, 5, 10, 15, 20 and 30 minutes. The reaction was stopped by the addition of acetonitrile:methanol (1:1) containing an internal standard (tolbutamide at 50 nM). Compounds were quantified by liquid chromatography triple quadrupole mass spectrometry (LC-MS/MS). Peak area ratios (analyte/internal standard) were converted to % remaining using the area ratio at time 0 as 100%. Half-life (t1/2 = ln(2)/k) in minutes and intrinsic clearance (Clint = k x 1000/(0.25)) in μL/min/mg were calculated using a non-linear regression from % remaining versus incubation time. From this plot, the slope (k) was determined. The analysis conditions were: analytical column (Gemini C18, […], Phenomenex), electrospray ionization source (ESI) in positive and negative mode, mobile phase A (water + 0.1% formic acid) and B (acetonitrile + 0.1% formic acid), flow rate of 0.7 mL/min.

Kinetic solubility = format: physicochemical; settings: for solubility kinetic at 24 h: PBS buffer pH 7.4, aqueous buffer, kinetic from dmso stock, PBS pH 7.4, read-out: KS PBS - pH7.4
Experimental: The precipitates on the incubation plate were removed by centrifugation (15 min, 3000 rpm, r.t.); the compound concentration in the resulting supernatant was determined by LC-MS/MS. Results were calculated as the concentration of remaining compound in solution after incubation.

[6] = intracellular amastigotes in PMM, 5 days
[7] = Leishmania infantum, 120 h, intracellular amastigotes in PMM, 5 days
[8] = reverse stationary phase HPLC column (Ascentis RP-Amide), pH 7.4, S1 Data
[9] = reverse-phase HPLC retention (Ascentis RP-Amide column), experimental, pH 7.4

Compound | SI: selectivity index (CC50 / IC50) [1] | IC50 ([1]; S1 Data) [µM] | L. infantum IC50 [1, 6] | IC50 ([2]; S1 Data) [µM] | CC50 (MRC-5 cells) [µM] | eLogD ([3]; S1 Data) | PAMPA Pe [4] | IC50 [1, 7] [µM] | IC50 ([1]; Leishmania infantum, S1 Data) [µM] | IC50 ([2]; Mus musculus, Macrophage) [µM] | CC50 (MRC-5 cytotoxicity) [µM] | MLM CLint ([5]; S1 Data) [µL/min/mg] | Papp at 5 h, 10 μM [4] [×10⁻⁶ cm/s] | solubility kinetic at 24 h (Kinetic solubility) [µg/mL] | KS PBS - pH 2 (Kinetic solubility) [ug/mL] | chromatographic logD [3, 8] | chromatographic logD [3, 9] | microsomal CLint at 0.5 μM [5] [µL/min/mg] | MLM CLint ([5]; mouse liver microsome intrinsic clearance) [µL/min/mg] | eLogD ([3]; experimental, pH 7.4)
CCCn1c(NC(=O)Cc2ccc(F)cc2)nc(c13)cc(C(=O)O)cc3 [Compound 10] | 1 | > 64 | inactive | > 64 | > 64 | 1.83 | 6.27 10-6 cm/s |  |  |  |  |  |  |  |  |  |  |  |  | 
COCCn1c(NC(=O)c2ccnn2C)nc2ccc(C#N)cc21 [Compound 50, O=C(c1ccnn1C)Nc2nc(ccc(C#N)c3)c3n2CCOC] | 1 |  |  |  |  |  |  | 47 | 47 | > 64 | > 64 | 98 | 14.7 | 5.98 (≈ 18.4 µM) | 7.77 |  |  |  |  | 
CCCn1c(NC(=O)Cc2ccc(F)cc2)nc(c13)cc(C(=O)NC)cc3 [Compound 11] | 1 | > 64 |  | > 64 | 34.8 | 3.18 | 9.18 10-6 cm/s |  |  |  |  | 66 |  |  |  |  |  |  |  | 
Cn1nccc1C(=O)Nc1nc2cccnc2n1CC(C)(C)C [Compound 54, CC(Cn1c(NC(=O)c2n(C)ncc2)nc(c13)cccn3)(C)C] | 4 |  |  |  |  |  |  | 7.8 | 7.75 | 32 | 43.7 | 222 | 11.7 |  |  | 4.04 | 4 |  |  | 
O=C(Cc1ccc(Cl)cc1)Nc1nc2cc(F)ccc2[nH]1 [Compound 18, Fc1ccc([nH]c(NC(Cc2ccc(Cl)cc2)=O)n3)c3c1] |  |  | poor activity |  |  |  |  |  | > 64 | > 64 | > 64 |  | 6.04 |  |  | 4.26 | 3.9 | 366 |  | 
Cn1nccc1C(=O)Nc1nc2cncnc2n1CC(F)(F)F [Compound 55, O=C(c1ccnn1C)Nc2nc(cncn3)c3n2CC(F)(F)F] | 2 |  |  |  |  |  |  | 4 | 4.03 | 8 | 24.8 | 24 | 13.6 | 65 (≈ 200 µM) | 64.44 |  |  |  |  | 
CC(C)(C)Cn1c(NC(=O)c2ccccn2)nc2ccc(C#N)cc21 [Compound 40, CC(Cn1c(NC(=O)c2ccccn2)nc(c13)ccc(C#N)c3)(C)C] | 1 |  |  |  |  |  |  | 15 | 14.9 | 16 | 60.9 |  | 3.62 |  |  | 3.93 | 4 | 1030 |  | 
CCCn1c(NC(=O)Cc2ccc(F)cc2)nc2cc(F)c(F)cc21 [Compound 6, Fc1cc(n(CCC)c(NC(=O)Cc2ccc(F)cc2)n3)c3cc1F] | 29 |  |  |  |  |  |  | 2.2 | 2.19 | > 64 | > 64 |  | 13.6 |  |  | 4.04 |  |  | 399 | 
CC(C)(C)n1c(NC(=O)Cc2ccc(F)cc2)nc2cc(F)ccc21 [Compound 19, Fc1cc(nc(NC(=O)Cc2ccc(F)cc2)n3C(C)(C)C)c3cc1] |  |  |  |  |  |  |  | 19 | 18.6 | > 64 | > 64 |  | 6.35 |  |  | 4.04 | 4 | 373 |  | 
CCCn1c(NC(=O)Cc2ccc(F)cc2)nc2c(F)cccc21 [Compound 5, Fc1cccc2c1nc(NC(=O)Cc3ccc(F)cc3)n2CCC] | 1 |  |  |  |  |  |  |  | > 64 | > 64 | > 64 | 715 | 16.2 |  |  | 3.57 | 3.6 |  |  | 
Cn1ccc(C(=O)Nc2nc3ccc(C#N)cc3n2CC(F)(F)F)n1 [Compound 35, O=C(c1nn(C)cc1)Nc2nc(ccc(C#N)c3)c3n2CC(F)(F)F] | 1 |  |  |  |  |  |  | 26 | 25.7 | 32 | 58.2 | 73 | 13.9 |  |  | 4.15 |  |  |  | 4.2
CC(C)(C)Cn1c(NC(=O)c2ccn(CCO)n2)nc2ccc(C#N)cc21 [Compound 38, O=C(c1nn(CCO)cc1)Nc2nc(ccc(C#N)c3)c3n2CC(C)(C)C] | 1 |  |  |  |  |  |  |  | > 64 | > 64 | > 64 |  | 7.54 |  |  | 4.03 | 4 | < 23 |  | 
